How the values were obtained:
Pearl 1 = target: T1, Pearl 1 (Homo sapiens, UniProt Q5VY43); assay: Pearl 1 immunoprecipitation and pTyrosine immunoblot, platelets; format: cell-based; conditions: 15 minutes exposure, vs BSA
T1 construct: endogenous in cells; host or cells: freshly isolated human platelets
T1 sequence (Q5VY43 21-1037): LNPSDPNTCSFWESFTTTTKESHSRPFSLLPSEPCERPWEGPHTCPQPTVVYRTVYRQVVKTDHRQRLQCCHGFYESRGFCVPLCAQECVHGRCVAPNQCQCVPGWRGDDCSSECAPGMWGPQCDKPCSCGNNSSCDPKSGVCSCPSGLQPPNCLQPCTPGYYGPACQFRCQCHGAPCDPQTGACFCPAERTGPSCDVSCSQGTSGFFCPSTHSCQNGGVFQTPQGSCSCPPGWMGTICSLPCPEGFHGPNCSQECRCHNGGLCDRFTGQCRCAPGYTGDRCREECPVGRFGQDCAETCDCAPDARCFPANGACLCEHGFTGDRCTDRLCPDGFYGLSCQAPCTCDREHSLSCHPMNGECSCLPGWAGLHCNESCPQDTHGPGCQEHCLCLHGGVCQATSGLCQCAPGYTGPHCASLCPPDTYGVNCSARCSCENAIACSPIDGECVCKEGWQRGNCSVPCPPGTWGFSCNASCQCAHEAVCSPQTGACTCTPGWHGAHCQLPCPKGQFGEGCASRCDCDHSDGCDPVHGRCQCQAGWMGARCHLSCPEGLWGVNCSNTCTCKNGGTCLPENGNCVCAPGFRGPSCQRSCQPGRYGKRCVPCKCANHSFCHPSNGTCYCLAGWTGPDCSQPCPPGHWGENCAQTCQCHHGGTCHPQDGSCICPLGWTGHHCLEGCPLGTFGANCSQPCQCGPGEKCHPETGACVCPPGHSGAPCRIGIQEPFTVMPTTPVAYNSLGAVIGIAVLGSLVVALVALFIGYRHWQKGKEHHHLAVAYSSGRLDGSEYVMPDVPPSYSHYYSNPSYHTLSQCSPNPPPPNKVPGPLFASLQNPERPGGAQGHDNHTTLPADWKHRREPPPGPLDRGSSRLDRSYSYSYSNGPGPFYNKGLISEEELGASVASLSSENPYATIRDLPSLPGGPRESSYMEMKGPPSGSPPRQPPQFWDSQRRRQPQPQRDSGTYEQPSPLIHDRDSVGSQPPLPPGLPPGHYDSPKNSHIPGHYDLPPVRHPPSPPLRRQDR
Method: Subsequently, 204, of BSA-blocked Invitrogen Protein A Dynabeads slurry was added, followed by rotation for 45 minutes. The beads were separated using magnetism and washed with RIPA buffer 4-5 times, then resuspended with reducing LDS sample buffer and analyzed by immunoblot assay. Bands for p-tyrosine and Pearl 1 were detected at ˜140 kDa.
Prior to performing signaling assays, cells were trypsinized, centrifuged, suspended in basal media, and counted using an automated hemocytometer. Cells were further diluted in basal media to an assay-dependent concentration. Cells were then incubated with gentle agitation for 60 minutes to prevent cell attachment and reduce basal signaling. PP1, Dynasore, MK-2206, and Rapamycin were diluted in DMSO and used in assay concentrations of 10 μM, 100 μM, 10 μM, and respectively, for the final 20-30 minutes of incubation in basal media. An equal volume of DMSO was used as the negative control condition. […] 1 μg Pearl 1 polyclonal antibody was added as a specific positive control. 20% growth media or 2% fetal bovine serum, labeled “Serum” in figures, was added as a non-specific positive control. The cells were centrifuged at 300G for 3 minutes with the exception of platelets, which were centrifuged at 500G for 5 minutes. […] Protein content was determined using a bicinchoninic acid assay with BSA standards (#23225, Pierce BCA Protein Assay Kit). […]

HUVECs = assay: HUVEC adhesion assay; format: cell-based, human; conditions: wells coated with increasing concentrations, 10 minutes
Method: Subsequently, wells were blocked with 100 mg/mL BSA and washed with DPBS. HUVECs were collected and resuspended in basal media. 5,000 cells were added to each well. Cells were centrifuged and incubated at 37° C. for 10 minutes. The plate was gently centrifuged upside down to remove non-adhered cells. Adhered cells were fixed with 4% paraformaldehyde, stained with 4′,6-diamidino-2-phenylindole (DAPI), and counted by automated microscopy as done previously.

platelets = system: platelets
Method: Complete blood counts (CBC) and washed platelet counts were determined using a hematology analyzer Element HT5 (Heska, Loveland). […] For flow cytometry, diluted whole blood or isolated platelets were pre-incubated with their respective fluorescent antibodies for 15 minutes and fixed. For murine whole blood: CD41-VioBlue, CD61-PE (Mitlenyi Biotec, Bergisch Gladbach, Germany), CD42b-DL649, GPVI-FITC (Emfret, Eibelstadt, Germany) and for human whole blood and isolated platelets: CD41-FITC, CD61-APC, CD42b-PE (Biolegend, San Diego), GPVI-BV421 617 (BD, Franklin Lakes). Platelet surface receptor levels were quantified by flow cytometry on a 618 CytoFlex analyzer.

VSMCs = assay: VSMC adhesion assay; format: cell-based, mouse; conditions: immobilized protein
Text: Plates were ultraviolet (UV) sterilized before adding cells. […] Efficient Itgα9 knockdown was confirmed by qPCR.

AKT = conditions: BSA, N-terminal, C-terminal and full-length SVEP1

“SVEP1: recombinant murine SVEP1 extracellular matrix protein with Myc and poly-histidine tag, expressed in 293F cells” was tested, and the “phospho-tyrosine signal of Pearl 1 (140 kDa)” value (Pearl 1) was “robust phospho-tyrosine signal”, the “adherence of HUVECs to coated protein” value (HUVECs) was “dose-dependent manner up to 20 pg/mL” and the “platelet aggregation and agglutination” value (platelets; platelets from mice compared to humans) was “notably milder”. For the same substance, the “platelet aggregation (decrease in whole blood platelet count)” value (platelets; soluble recombinant SVEP1, human whole blood) was “induced spontaneous platelet aggregation and agglutination”, the “adhesion of VSMCs” value (VSMCs) was “adhere to SVEP1 in a dose-dependent manner” and the “activation of AKT signaling (phospho-AKT)” value (AKT) was “necessary to activate AKT signaling”.

Reference: patent US20230159620A1, “COMPOSITIONS AND METHODS OF TREATMENT FOR VASCULAR DISEASES AND THROMBOSIS” (Washington University, priority 2021, published 2023)
